# Key:
# [1] = biological target: proteasome β-5, β-1, β-2 subunits in MM.1S cells (Homo sapiens, UniProt P28072+P28074+Q99436); format: cell-based
# Experimental: In vivo determination of proteasome activity was conducted using a competition experiment with Dansyl-Ahx3L3VS, which covalently modifies all active proteasome subunits. This inhibitor contains a dansyl sulfonamide hexanoyl hapten that can be visualized by immunoblotting using antibodies against the dansyl moiety. […] Cells were lysed by incubating them for 30 mins in NP-40 lysis buffer (50 mM Tris-HCl pH 8.0, 150 mM NaCl, 1% NP-40), followed by 5 min. centrifugation to remove membrane fractions, nuclei, and cell debris. […] Blots were developed by enhanced chemiluminescence (Western Lightning, Perkin-Elmer).
# [2] = test system: MM.1S, MM.1R, RPMI-8226, Dox-40, OPM2 and U266 cells; assay: MTT cell viability of MM cell lines; format: cell-based, human; details: 24 h, range over all six cell lines; FIG. 5A
# From the text: Results are mean±S.D from three independent experiments (P<0.005; n=3 for all Cell lines).
# patient MM-derived BMSCs = assay: DNA fragmentation apoptosis assay on bone marrow stromal cells; format: cell-based, human; details: 20 nM, 24 h, BMSCs Patient #1-5; FIG. 6
# MM.1S cells [3] = assay: MTT viability of MM.1S cells with or without rhIL-6 or rhIGF-I; format: cell-based, human
# From the text: Adhesion of MM cells to BMSCs induces IL-6 and IGF-I secretion from BMSCs, which not only regulates the growth of MM cells, but also protects against chemotherapy. See Hardin, J., MacLeod, S., Grigorieva, I., Chang, R., Barlogie, B., Xiao, H. & Epstein, J. (1994) Blood 84, 3063-70 and Chauhan, D., Kharbanda, S., Ogata, A., Urashima, M., Teoh, G., Robertson, M., Kufe, D. W. & Anderson, K. C. […] Thus, whether rhIL-6 or rhIGF-I inhibits apoptosis in MM cells induced by the compound of Formula (II) (X=Cl) was evaluated. […] At 24 h cells were harvested and viability analyzed by MTT assays. […] Median viability was 51±2.1% after treatment with Dex and 92±5.5% for Dex+rhIL-6 (P=0.05, as determined by one-sided Wilcoxon rank-sum test). Results are mean±SD of three independent experiments. […] In contrast and as in other studies, both IL-6 and IGF-I block Dex-induced decreased MM.1S cell viability. See Chauhan, D., Hideshima, T. & Anderson, K. C. (2003) Int J Hematol 78, 114-20 and Mitsiades, C. S., Mitsiades, N., Poulaki, V., Schlossman, R., Akiyama, M., Chauhan, D., Hideshima, T., Treon, S. P., Munshi, N. C., Richardson, P. G. & Anderson, K. C.
# MM.1S cells [4] = assay: Mitochondrial and caspase apoptotic signaling in MM cells (flow cytometry, immunoblot); format: cell-based, human; details: 7 nM
# Experimental: Mitochondria play a critical role in apoptosis induction during stress. See Bossy-Wetzel, E. & Green, D. R. (1999) Mutat Res 434, 243-51 and Chauhan, D. & Anderson, K. C. […] Superoxide (O2^−) production was measured by staining cells with membrane permeable dye dihydroethidium (HE) for the last 15 min. Superoxide anions oxidize HE to fluorescent ethidium, permitting analysis by flow cytometry.
# Reprobing the immunoblots with anti-Hsp60 (lower, left panel) and anti-tubulin (lower, right panel) Abs confirms purity of mitochondrial extracts and equal protein loading. Release of mitochondrial apoptogenic proteins cyto-c and Smac/DIABLO induce activation of caspases-9 and -3. […] As a control for equal loading of proteins and purity of mitochondrial fractions, filters were also reprobed with anti-tubulin (lower right panel) and anti-Hsp60 Abs (lower left panel), respectively. Blots are representative of three independent experiments.
# Both caspase-9 (mitochondria-dependent) and caspase-8 (mitochondria-independent) are known to proteolytically cleave and activate a common downstream effector capsase-3, resulting in PARP cleavage. […] Total protein lysates were subjected to SDS-PAGE analysis. Immunoblot analysis of the lysates was performed with anti-PARP (upper panel) or anti-caspase-3 (lower panel) Abs. ‘FL’ indicates ‘full length’ and ‘CF’ denotes cleaved fragment.
# (§1) Immunoblot analysis was performed using antibodies to cytochrome-c, Smac, Caspase-8, -9, or -3 (Cell Signaling, Beverly, Mass.), tubulin (Sigma, St. Louis, Mo.), PARP, Hsp60, or Bax (BD Bioscience Pharmingen, San Diego, Calif.). Blots were developed by enhanced chemiluminesence (ECL; Amersham, Arlington Heights, Ill.).
# Bax = assay: Immunoblot of Bax in mitochondrial protein extracts; format: cell-based, human; details: MM.1S cells; FIG. 12E
# Experimental: as §1
# Previous studies have established that Bax induces mitochondrial apoptotic pathway. See Wei, M. C., Zong, W. X., Cheng, E. H., Lindsten, T., Panoutsakopoulou, V., Ross, A. J., Roth, K. A., MacGregor, G. R., Thompson, C. B. & Korsmeyer, S. J. (2001) Science 292, 727-30 and Lei, K., Nimnual, A., Zong, W. X., Kennedy, N. J., Flavell, R. A., Thompson, C. […] Thus, whether MM cell apoptosis induced by the compound of formula (II) (X=Cl) correlates with alterations in Bax was evaluated. […] Blots are representatives of three independent experiments.
# [5] = test system: Lymphocytes from five healthy donors; assay: MTT cytotoxicity on normal lymphocytes
# From the text: Bortezomib therapy is associated with toxicity in patients. […] Results are the mean±SD of three independent experiments.
# [6] = test system: Chymotrypsin-like proteasome activity; format: cell-based, human; details: data not shown
# From the text: (§2) Whether the compound of formula (II) or Bortezomib alters proteasome activity in normal lymphocytes and skin fibroblasts was also examined.
# [7] = test system: normal CCD-27sk fibroblasts; assay: cells; format: cell-based, human
# From the text: as §2
smiles,measurement,setting,value
CC12OC(=O)C1(C(O)C1C=CCCC1)NC(=O)C2CCCl (centres unmarked) [compound of formula (II) (X=Cl)],dansylAhx3L3VS-labeling of the β-5 subunits,"[1]; 7 nM, 30 mins, 1 h or 3 h, FIG. 4",decreases the dansylAhx3L3VS-labeling of the β-5 subunits
same,concentration decreasing dansylAhx3L3VS-labeling of the β-1 subunits,[1]; MM.1S cells,1 nM
same,concentration decreasing dansylAhx3L3VS-labeling of the β-2 subunits,[1]; MM.1S cells,20 nM
same,IC50,[2],0.007 to 0.024 µM
same,apoptosis by DNA fragmentation assay,patient MM-derived BMSCs,does not induce apoptosis
same,median cell viability,"MM.1S cells [3]; agent + rhIL-6 (10 ng/ml), 24 h (compound 7 nM; Dex 0.5 μM)",51.2±3.2%
same,median cell viability,"MM.1S cells [3]; agent alone, 24 h (compound 7 nM; Dex 0.5 μM)",47±2.3%
same,median cell viability,"MM.1S cells [3]; compound 7 nM + rhIGF-I (50 ng/ml), 24 h",50.3%±2.0
same,"mitochondrial membrane potential (ΔΨm), CMXRos","MM.1S cells [4]; 12 h, serum starved MM.1S, FIG. 11A",decreases ΔΨm
same,"Superoxide (O2−) production, dihydroethidium","MM.1S cells [4]; 12 h, FIG. 11B",triggers O2^− production
same,caspase-3 and PARP cleavage,"MM.1S cells [4]; 24 h, MM.1S or MM.1R, FIG. 11F",triggers caspase-3 and PARP cleavage
same,mitochondrial versus cytosolic cyto-c and smac,"MM.1S cells [4]; 24 h, FIG. 11C",triggers a decrease in mitochondrial cyto-c
same,caspase-9 cleavage,"MM.1S cells [4]; 24 h, FIG. 11D",induces proteolytic cleavage of caspase-9
same,caspase-8 activation,"MM.1S cells [4]; 24 h, FIG. 11E",activates caspase-8
same,Bax levels in mitochondria,Bax,"little, if any increase in Bax levels in mitochondria"
same,viability of normal lymphocytes,"[5]; 72 h, 0-20 nM (compound even at 20 nM; Bortezomib at 6-10 nM), FIG. 13",does not significantly decrease the survival of normal lymphocytes
same,effect on normal lymphocytes at the IC50 of patient MM cells,[5]; in words,no effect on normal lymphocytes
same,inhibition of Chymotrypsin-like proteasome activity,[6]; 20 nM,99%
same,proteasome activity in CCD-27sk fibroblasts,[6]; treatment at the IC50,inhibited proteasome activity
same,IC50,[7],0.317 µM

# From US10610517B2, “Compositions and methods for treating neoplastic diseases” (Celgene International II Sàrl, priority 2004, dated 2020)
